Test results published in ChEMBL document CHEMBL5316326, “Discovery of a Novel Covalent EZH2 Inhibitor Based on Tazemetostat Scaffold for the Treatment of Ovarian Cancer” (J Med Chem, 2023).
pIC50: −log10 of the molar value. The source made the active and inactive calls. No cut-off for these calls is given here.

Assays:
[1] = system: SK-BR-3; assay: Antiproliferative activity against human SK-BR-3 cells assessed as inhibition of cell proliferation incubated for 72 hrs by MTT assay; assay type: functional, cell-based; settings: SK-BR-3, 72 h
[2] = Protein binding in Sprague-Dawley rat plasma at 2 uM incubated for 5 hrs by equilibrium dialysis based LC-MS/MS analysis; assay type: ADME, cell-free; settings: read-out: PPB (converted)
[3] = system: A2780; assay: Antiproliferative activity against human A2780 cells assessed as inhibition of cell proliferation incubated for 72 hrs by MTT assay; assay type: functional, cell-based; settings: A2780, 72 h
[4] = molecular target: Protein arginine N-methyltransferase 7 (Homo sapiens) (UniProt Q9NVM4); assay: Inhibition of PRMT7 (unknown origin) at 1 to 10 uM by AlphaLlSA assay; settings: dose 1-10 µM
Sequence of Protein arginine N-methyltransferase 7 (Homo sapiens) (Q9NVM4 whole entry): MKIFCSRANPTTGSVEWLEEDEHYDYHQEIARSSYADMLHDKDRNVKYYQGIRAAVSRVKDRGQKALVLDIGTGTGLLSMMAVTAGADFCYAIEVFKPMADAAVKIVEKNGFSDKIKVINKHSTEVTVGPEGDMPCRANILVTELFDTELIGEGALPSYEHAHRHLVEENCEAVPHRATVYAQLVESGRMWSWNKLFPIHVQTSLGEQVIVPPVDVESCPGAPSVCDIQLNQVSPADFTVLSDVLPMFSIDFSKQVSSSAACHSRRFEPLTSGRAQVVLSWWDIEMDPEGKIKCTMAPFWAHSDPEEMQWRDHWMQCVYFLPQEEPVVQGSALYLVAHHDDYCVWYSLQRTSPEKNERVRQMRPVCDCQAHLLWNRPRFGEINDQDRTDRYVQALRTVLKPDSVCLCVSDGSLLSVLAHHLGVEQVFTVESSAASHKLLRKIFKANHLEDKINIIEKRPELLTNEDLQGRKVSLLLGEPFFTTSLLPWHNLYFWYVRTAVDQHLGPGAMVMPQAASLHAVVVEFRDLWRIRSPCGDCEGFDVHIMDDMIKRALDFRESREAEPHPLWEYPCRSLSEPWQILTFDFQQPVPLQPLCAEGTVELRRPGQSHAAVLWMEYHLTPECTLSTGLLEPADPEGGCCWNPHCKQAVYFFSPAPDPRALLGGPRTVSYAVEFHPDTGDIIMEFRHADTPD

[5] = MRT(t) in Sprague-Dawley rat at 5 mg/kg, iv and measured upto 24 hrs by LC-MS/MS analysis; assay type: ADME, organism-based; settings: in vivo
[6] = system: NCI-H1703; assay: Antiproliferative activity against human NCI-H1703 cells assessed as inhibition of cell proliferation incubated for 72 hrs by MTT assay; assay type: functional, cell-based; settings: NCI-H1703, 72 h
[7] = system: Histone-lysine N-methyltransferase EZH2 (Homo sapiens), Q15910 [Y641N]; assay: Inhibition of EZH2 […] mutant (unknown origin) at 1 nM by AlphaLlSA assay
Sequence of Histone-lysine N-methyltransferase EZH2 (Homo sapiens), Q15910 [Y641N] (Q15910 whole entry Y641N): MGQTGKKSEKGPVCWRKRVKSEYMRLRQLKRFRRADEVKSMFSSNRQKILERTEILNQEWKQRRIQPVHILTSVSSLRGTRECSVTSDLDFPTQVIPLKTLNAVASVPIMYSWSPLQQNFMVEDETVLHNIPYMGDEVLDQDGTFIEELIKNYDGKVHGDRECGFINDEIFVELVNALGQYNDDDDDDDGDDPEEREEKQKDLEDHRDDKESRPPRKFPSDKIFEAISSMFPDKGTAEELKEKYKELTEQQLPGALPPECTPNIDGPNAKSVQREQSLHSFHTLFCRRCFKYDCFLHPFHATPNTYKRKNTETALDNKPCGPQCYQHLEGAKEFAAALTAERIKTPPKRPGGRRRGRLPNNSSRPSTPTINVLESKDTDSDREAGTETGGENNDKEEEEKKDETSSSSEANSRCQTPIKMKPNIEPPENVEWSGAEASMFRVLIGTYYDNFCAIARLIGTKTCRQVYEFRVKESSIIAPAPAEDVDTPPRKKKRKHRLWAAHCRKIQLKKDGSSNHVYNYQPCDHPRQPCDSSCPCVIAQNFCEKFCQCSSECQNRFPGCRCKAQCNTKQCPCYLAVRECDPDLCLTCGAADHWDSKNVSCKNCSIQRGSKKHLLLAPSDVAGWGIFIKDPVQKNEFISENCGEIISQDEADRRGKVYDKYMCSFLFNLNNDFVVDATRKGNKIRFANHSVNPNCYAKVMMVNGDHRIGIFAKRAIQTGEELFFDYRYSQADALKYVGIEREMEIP

[8] = Glutathione reactivity in pH 7.4 phosphate buffer assessed as GSH-adduct formation at 1 mM incubated for 2 to 12 hrs by HPLC-MS analysis; assay type: physicochemical; settings: pH 7.4, 1000 µM, time 2-12 hrs
[9] = molecular target: Histone-lysine N-methyltransferase SUV39H1 (Homo sapiens) (UniProt O43463); assay: Inhibition of SUV39H1 (unknown origin) at 1 to 10 uM by AlphaLlSA assay; settings: dose 1-10 µM
Sequence of Histone-lysine N-methyltransferase SUV39H1 (Homo sapiens) (O43463 whole entry): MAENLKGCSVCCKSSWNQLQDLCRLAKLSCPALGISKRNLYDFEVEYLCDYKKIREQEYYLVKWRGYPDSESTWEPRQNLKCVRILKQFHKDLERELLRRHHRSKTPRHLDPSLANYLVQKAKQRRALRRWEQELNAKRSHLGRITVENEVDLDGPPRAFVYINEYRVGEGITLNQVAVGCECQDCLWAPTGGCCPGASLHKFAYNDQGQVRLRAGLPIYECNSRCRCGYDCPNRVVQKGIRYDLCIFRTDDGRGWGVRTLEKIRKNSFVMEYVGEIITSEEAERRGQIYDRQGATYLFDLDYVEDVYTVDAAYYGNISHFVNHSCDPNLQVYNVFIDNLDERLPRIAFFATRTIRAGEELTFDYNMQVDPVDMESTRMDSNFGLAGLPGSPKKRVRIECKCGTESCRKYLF

[10] = system: PA-1; assay: Antitumor activity against human PA-1 cells xenografted in BALB/C nude mouse assessed as increase apoptosis by measuring cleaved caspase-3 positive cells at 75 to 150 mg/kg,po BID for 21 days by immunohistochemical analysis; assay type: functional, organism-based; settings: dose 75-150 mg/kg, time 21.0 day
[11] = Cmax in Sprague-Dawley rat at 100 mg/kg, po and measured upto 24 hrs by LC-MS/MS analysis; assay type: ADME, organism-based; design: dose 100 mg/kg, time < 24 hrs, route po; settings: in vivo
[12] = system: Histone-lysine N-methyltransferase EZH2 (Homo sapiens), Q15910 [A677G]; settings: dose 10.0 nM
Sequence of Histone-lysine N-methyltransferase EZH2 (Homo sapiens), Q15910 [A677G] (Q15910 whole entry A677G): as the sequence (Q15910 whole entry Y641N) above, with N641Y, A677G counted along it
Description: Inhibition of EZH2 A667G mutant (unknown origin) at 10 nM by AlphaLlSA assay

[13] = MRT(t) in Sprague-Dawley rat at 100 mg/kg, po and measured upto 24 hrs by LC-MS/MS analysis; assay type: ADME, organism-based; settings: in vivo
[14] = system: PA-1; assay: Antiproliferative activity against human PA-1 cells assessed as inhibition of cell proliferation incubated for 72 hrs by MTT assay; assay type: functional, cell-based; settings: PA-1, 72 h
[15] = system: PA-1; assay: Induction of apoptosis in human PA-1 cells assessed as viable cells at 40 uM incubated for 48 hrs by AnnexinV-FITC/PI staining based flow cytometry analysis (Rvb= 88.53%); assay type: functional; settings: read-out: Activity
[16] = molecular target: Histone-lysine N-methyltransferase EHMT2 (Homo sapiens) (UniProt Q96KQ7); assay: Inhibition of G9a (unknown origin) at 1 to 10 uM by AlphaLlSA assay; settings: dose 1-10 µM
Sequence of Histone-lysine N-methyltransferase EHMT2 (Homo sapiens) (Q96KQ7 whole entry): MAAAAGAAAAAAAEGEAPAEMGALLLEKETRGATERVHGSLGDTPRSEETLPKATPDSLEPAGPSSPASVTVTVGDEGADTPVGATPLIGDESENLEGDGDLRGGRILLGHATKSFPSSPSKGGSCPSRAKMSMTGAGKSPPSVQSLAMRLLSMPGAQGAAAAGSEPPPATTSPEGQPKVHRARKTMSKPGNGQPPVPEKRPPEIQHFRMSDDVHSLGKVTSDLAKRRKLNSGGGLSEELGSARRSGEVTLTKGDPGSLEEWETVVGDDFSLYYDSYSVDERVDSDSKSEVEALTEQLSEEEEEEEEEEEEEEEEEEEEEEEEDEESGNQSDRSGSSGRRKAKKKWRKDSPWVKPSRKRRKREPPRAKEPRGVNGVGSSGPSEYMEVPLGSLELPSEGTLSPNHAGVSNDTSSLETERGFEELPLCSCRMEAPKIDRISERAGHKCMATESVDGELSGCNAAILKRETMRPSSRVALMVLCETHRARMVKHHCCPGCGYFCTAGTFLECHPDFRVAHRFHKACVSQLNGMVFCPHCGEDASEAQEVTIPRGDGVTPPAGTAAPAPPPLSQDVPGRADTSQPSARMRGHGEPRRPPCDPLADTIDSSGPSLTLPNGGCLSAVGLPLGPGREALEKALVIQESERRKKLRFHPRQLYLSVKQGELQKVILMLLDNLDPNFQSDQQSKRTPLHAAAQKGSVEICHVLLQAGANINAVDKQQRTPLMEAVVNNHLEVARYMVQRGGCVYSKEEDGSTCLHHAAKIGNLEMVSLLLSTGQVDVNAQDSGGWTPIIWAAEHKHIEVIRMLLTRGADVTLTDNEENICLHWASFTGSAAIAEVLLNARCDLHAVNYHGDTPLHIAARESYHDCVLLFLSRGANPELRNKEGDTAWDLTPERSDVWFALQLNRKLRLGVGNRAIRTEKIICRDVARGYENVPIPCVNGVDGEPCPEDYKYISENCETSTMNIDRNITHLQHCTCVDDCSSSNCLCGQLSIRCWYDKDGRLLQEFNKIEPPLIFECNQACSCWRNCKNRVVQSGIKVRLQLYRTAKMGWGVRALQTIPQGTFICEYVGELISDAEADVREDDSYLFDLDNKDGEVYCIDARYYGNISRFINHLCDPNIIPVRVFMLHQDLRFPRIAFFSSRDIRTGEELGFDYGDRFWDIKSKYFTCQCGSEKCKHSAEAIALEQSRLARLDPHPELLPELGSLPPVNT

pIC50 [1]: 4.64 | fraction unbound at 5 h, 2 µM [2]: 0.0022 | pIC50 [3]: 4.95 | inhibition [4]: inactive | MRT(t) [5]: 0.26 h | pIC50 [6]: 4.58 | inhibition [7]: Active | Activity [8]: Not Active | inhibition [9]: inactive | Cmax [11]: 6740 ng/mL | inhibition [12]: Active | MRT last at 24 h [13]: 1.73 h | inhibition [16]: inactive
SMILES: C=CC(=O)Nc1ccc(C)c(-c2cc(C(=O)NCc3c(C)cc(C)[nH]c3=O)c(C)c(N(CC)C3CCOCC3)c2)c1
Activity [10]: Active | pIC50 [14]: 5.00 | viability at 40 µM [15]: 10.3%
